The record followed here is PubChem BioAssay (NCI).

The structures appear in SMILES notation.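 A five-concentration, 48-hour dose response in 96-well plates underlies each endpoint, interpolated linearly between surrounding concentrations. TGI: concentration producing complete growth inhibition.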

Among the test systems are NCI-H460 lung; NCI-H522 lung; OVCAR-4 ovarian; OVCAR-3 ovarian; SNB-19 CNS; HOP-62 NSCLC; KM12 colon; RXF 393 renal; T-47D breast; HL-60(TB) leukemia; UO-31 renal; SF-268 CNS; HS 578T breast; MDA-MB-435; BT-549 breast; MOLT-4 leukemia; M14 melanoma; RPMI-8226 leukemia.
Holding throughout (experiment): NCI anticancer screen, dose series, 48 h

`Cc1ccc(N=Nc2c(O)ccc3cc(S(=O)(=O)O)ccc23)c(C)c1`: the TGI in the experiment with NCI-H460 lung, in the experiment with NCI-H522 lung, in the experiment with OVCAR-4 ovarian, in the experiment with OVCAR-3 ovarian, in the experiment on SNB-19 CNS and in the experiment on HOP-62 NSCLC was > 100 µM in each case. For the same compound, the TGI in the experiment on KM12 colon, with RXF 393 renal, with T-47D breast, in the experiment with HL-60(TB) leukemia, with UO-31 renal and in the experiment on SF-268 CNS was > 100 µM each time. Further, the TGI in the experiment on HS 578T breast, with MDA-MB-435, in the experiment on BT-549 breast, in the experiment with MOLT-4 leukemia and in the experiment with M14 melanoma was > 100 µM throughout.
`Cc1c(C(=O)N2CCN(c3ccc([N+](=O)[O-])cc3)CC2)[n+](=O)c2cc(Cl)c(Cl)cc2n1[O-]`: the TGI came out at 56.7 µM with NCI-H460 lung; 32.7 µM with NCI-H522 lung; 29.5 µM in the experiment with OVCAR-4 ovarian; 43.2 µM with OVCAR-3 ovarian; 42.1 µM in the experiment on SNB-19 CNS; 38.2 µM with HOP-62 NSCLC. The TGI in the experiment with KM12 colon was > 100 µM; in the experiment with RXF 393 renal, 27.5 µM; with T-47D breast it was 45 µM; in the experiment on HL-60(TB) leukemia it was > 100 µM; in the experiment on SF-268 CNS, 35.2 µM; in the experiment with HS 578T breast, 93.6 µM. For the same compound, the TGI with MDA-MB-435 was > 100 µM; in the experiment with BT-549 breast, 33 µM; in the experiment with RPMI-8226 leukemia, 63.4 µM; in the experiment on MOLT-4 leukemia, > 100 µM; with M14 melanoma it was > 100 µM.
For the compound `COc1ccc2[nH]c(Cl)c(/C=C3/C(=O)Nc4cc(C)c(OC)cc43)c2c1`, the TGI with NCI-H460 lung came to 12.9 µM; with NCI-H522 lung, 9.62 µM; in the experiment on OVCAR-3 ovarian, 6.46 µM; in the experiment with SNB-19 CNS, 22.2 µM; in the experiment on HOP-62 NSCLC it was 18.5 µM; in the experiment on KM12 colon, 23.2 µM. The TGI with RXF 393 renal was found to be 27.9 µM; with T-47D breast, 30.4 µM; in the experiment on HL-60(TB) leukemia, 6.08 µM; in the experiment on UO-31 renal, 28.5 µM; in the experiment on SF-268 CNS it was 19.3 µM; in the experiment with HS 578T breast it was 20.9 µM. Besides, the TGI with MDA-MB-435 is 3.51 µM; with BT-549 breast, 21.5 µM; in the experiment with RPMI-8226 leukemia, > 100 µM; in the experiment on MOLT-4 leukemia, > 100 µM; in the experiment on M14 melanoma, 14.2 µM.
Take `COc1ccc2cc1Oc1ccc(cc1)C(Sc1ccccc1)CCOC(=O)CC2` (stereo unspecified): the TGI with NCI-H522 lung, in the experiment with OVCAR-4 ovarian, in the experiment on OVCAR-3 ovarian, in the experiment on SNB-19 CNS, in the experiment on HOP-62 NSCLC and in the experiment on KM12 colon was > 100 µM each time. For the same compound, the TGI in the experiment with RXF 393 renal, with T-47D breast, in the experiment with HL-60(TB) leukemia, with UO-31 renal, in the experiment on SF-268 CNS and with HS 578T breast was > 100 µM each time. In addition, the TGI in the experiment with MDA-MB-435, in the experiment on BT-549 breast, in the experiment on RPMI-8226 leukemia, in the experiment with MOLT-4 leukemia and with M14 melanoma was > 100 µM in each case.
With `Cn1ccn2c3nc4ccccc4nc3c(=O)c(C#N)c12`, the TGI in the experiment with NCI-H460 lung, in the experiment with NCI-H522 lung, in the experiment on OVCAR-4 ovarian, in the experiment on OVCAR-3 ovarian, with SNB-19 CNS and with KM12 colon was > 100 µM in each case. The TGI with RXF 393 renal, with T-47D breast, in the experiment on HL-60(TB) leukemia, in the experiment with UO-31 renal, in the experiment on SF-268 CNS and with HS 578T breast was > 100 µM throughout. Also, the TGI with MDA-MB-435, in the experiment on BT-549 breast, in the experiment with RPMI-8226 leukemia, with MOLT-4 leukemia and in the experiment on M14 melanoma was > 100 µM in each case.
As to `ClC(Cl)(Cl)C1=N[C@H]2[C@H](Br)[C@@H]3O[C@@H](c4ccccc4)[C@H](c4ccccc4)O[C@@H]3[C@H]2O1`, the TGI with NCI-H460 lung is 30 µM; in the experiment with NCI-H522 lung it was 26.7 µM; with OVCAR-4 ovarian, 43.8 µM; in the experiment on OVCAR-3 ovarian it was 31.9 µM; with SNB-19 CNS, 63.9 µM; in the experiment on HOP-62 NSCLC it was 41.3 µM. Moreover, the TGI is 45.6 µM with KM12 colon; 45.4 µM in the experiment on RXF 393 renal; > 100 µM in the experiment on T-47D breast; 38.5 µM with UO-31 renal; 37.2 µM with SF-268 CNS; 63.7 µM in the experiment with HS 578T breast. For the same compound, the TGI in the experiment with MDA-MB-435 is 42.4 µM; in the experiment with BT-549 breast it was 53 µM; in the experiment on RPMI-8226 leukemia, 41 µM; in the experiment on MOLT-4 leukemia, 45.7 µM; in the experiment on M14 melanoma, 50.3 µM.
`NC(=Nc1ccc(O)cc1)S(=O)(=O)O`: the TGI with NCI-H460 lung, with NCI-H522 lung, in the experiment on OVCAR-4 ovarian, with OVCAR-3 ovarian, in the experiment on SNB-19 CNS and in the experiment on HOP-62 NSCLC was > 100 µM in each case. Moreover, the TGI with KM12 colon, with RXF 393 renal, in the experiment on T-47D breast, in the experiment on HL-60(TB) leukemia, in the experiment on UO-31 renal and in the experiment with SF-268 CNS was > 100 µM throughout. The TGI in the experiment on HS 578T breast, in the experiment on MDA-MB-435, in the experiment on BT-549 breast, in the experiment on MOLT-4 leukemia and with M14 melanoma was > 100 µM each time.
For `CC(C(=O)ON1C(=O)CCC1=O)c1ccc(C(=O)c2ccccc2)s1` (stereo unspecified), the TGI with NCI-H460 lung, in the experiment on NCI-H522 lung, in the experiment with OVCAR-4 ovarian, with OVCAR-3 ovarian, with SNB-19 CNS and in the experiment on HOP-62 NSCLC was > 100 µM each time. Besides, the TGI in the experiment on KM12 colon, in the experiment on RXF 393 renal, in the experiment on T-47D breast, with UO-31 renal, in the experiment with SF-268 CNS and with HS 578T breast was > 100 µM each time. Also, the TGI in the experiment with MDA-MB-435, with BT-549 breast, in the experiment on RPMI-8226 leukemia, in the experiment with MOLT-4 leukemia and in the experiment on M14 melanoma was > 100 µM throughout.
